Assay results published in patent publication US20210368825A1, “FEED ADDITIVE FOR DAIRY CATTLE COMPRISING N-ACETYL-L-TRYPTOPHAN AS ACTIVE INGREDIENT” (CJ CHEILJEDANG CORPORATION, priority 2018, published 2021).
Entries after “also recorded” stand apart in the source; their conditions may differ.

What was measured:
[1] = test system: dry cows in the late stage of gestation; assay: Analysis of feed intake of dairy cattle according to NALT feeding; assay type: in vivo, Holstein Friesian cows; settings: for feed intake: basal diet supplemented with NALT (15 g/d)
Source text: (§1) From among Holstein Friesian cows in the late stage of gestation corresponding to 60 days before calving, 8 cows were selected in consideration of calving time (expected calving date±15 days), the number of calving (calving number), and the like, and 4 cows were assigned to each of a control (untreated) and a treated group.
(§2) In the present disclosure, as a basal diet fed during a dry period and a milking period, total mixed ration (TMR), roughage, and concentrates were provided in accordance with NRC (2001) nutrition requirements for dry cows. In the case of the treated group, evaluation was performed by supplementing N-acetyl-L-tryptophan (NALT) to the basal diet. Newborn calves were fed with colostrum for 3 days and then fed with milk obtained during a milking process for 8 weeks.
(§3) Evaluation of feed feeding before calving by feeding N-acetyl-L-tryptophan was performed for 60±8 days (error caused by difference in expected calving dates). The control was fed with the basal diet, and the treated group was fed with the basal diet supplemented with 15 g of NALT.
An amount of the feed left over was recorded for each cow at 9 a.m. every morning to measure a daily feed intake.

[2] = test system: milking cows after calving; assay: Analysis of milk quality of dairy cattle after calving according to NALT feeding (milk scanner FT1); assay type: in vivo, Holstein Friesian cows; parameters: Aceton / Aceton, total AVG / BHB / BHB, total AVG / Cas.B / Cas.B, total AVG / Mono FA / Mono FA, total AVG / Saturated FA / Saturated FA, total AVG / Total FA / Total FA, total AVG: unit not given here
Source text: as §1, §2, §3
Raw milk was pooled at 3 a.m. and 3 p.m. every 14 days after calving when lactation was initiated, and chemical compositions contained in milk, i.e., milk fat, milk protein, lactose, solid-not-fat (SNF), somatic cells, milk urea nitrogen (MUN), acetone, beta-hydroxybutyrate (BHB), casein-beta, mono- and poly-unsaturated fatty acids, saturated fatty acids, and total fatty acid, were analyzed using a milk scanner FT1 (Foss Alle 1 DK-3400 Hilleroed, Denmark).
In addition, in order to identify changes in milk protein yield and milk fat yield, changes were identified on a weekly basis.

[3] = test system: dairy cattle in dry period; assay: Change in hematological properties of dairy cattle in dry period according to NALT feeding; assay type: in vivo, Holstein Friesian cows
Source text: as §1, §2, §3
(§4) Blood was collected from dairy cattle and calves during 6 weeks of the dry period and immediately after calving via the jugular vein before feeding a morning feed every 2 weeks for 8 weeks. The collected blood was aliquoted into a serum tube (BD Vacutainer, Plymouth, UK) and a heparin tube (Becton-Dickinson, Belliver Industrial Estate, Plymouth, PL6 7BP, UK) and centrifuged (3,500 rpm, 15 min, 20° C.) to separate plasma.
(§5) Blood samples for analysis of changes in hematological properties such as white blood cells (WBC), lymphocytes, monocytes, granulocytes, mean corpuscular volume, mean corpuscular hemoglobin, and platelets were aliquoted into an ethylenediaminetetraacetic acid (EDTA)-treated vacutainer (Becton-Dickinson, Franklin Lakes, N.J., USA) and analyzed using a VetScan HM2 Hematology System (ABAXIS, Calif., USA).

[4] = test system: calves born from dairy cattle; assay: Metabolic change of calves born from dairy cattle according to NALT feeding; assay type: in vivo, Holstein Friesian cows (calves)
Source text: as §1, §2, §3, §4
Samples for analysis of metabolic changes such as albumin, glutamic-oxalacetic transaminase (GOT), blood urea nitrogen (BUN), triglycerides (TG), cholesterol (CHO), glucose (GLU), and non-esterified fatty acid (NEFA) were aliquoted into a 1.5 mL tube (Eppendorf AG, Hamburg, Germany) in an amount of 500 μL each and stored in a deep freezer at −80° C.

[5] = test system: calves born from dairy cattle; assay: Change in hematological properties of calves born from dairy cattle according to NALT feeding; assay type: in vivo, Holstein Friesian cows (calves)
Source text: as §1, §2, §3, §4, §5

[6] = average over 8 weeks after calving
[7] = milk, average over 8 weeks after calving
[8] = calves born from NALT-treated dairy cattle

Monocyte ([3]; dry period, 0 wk, reference 0-0.84): 0.48 K/uL
Granulocyte ([3]; dry period, 0 wk, reference 0.6-6.7): 3.89 K/uL
Lymphocyte ([3]; dry period, 0 wk, reference 2.5-7.5): 7.68 K/uL
WBC ([3]; dry period, 0 wk, reference 4-12): 10.45 K/uL
MCH ([3]; dry period, 0 wk, reference 11-17): 16.01 pg
MCV ([3]; dry period, 0 wk, reference 40-60): 46.75 fL
Platelet ([3]; dry period, 0 wk, reference 100-800): 297.67 K/ul
Monocyte, total AVG ([3]; dry period, average 0 to 6 weeks, reference 0-0.84): 0.74 K/uL
Granulocyte, total AVG ([3]; dry period, average 0 to 6 weeks, reference 0.6-6.7): 3.29 K/uL
Lymphocyte, total AVG ([3]; dry period, average 0 to 6 weeks, reference 2.5-7.5): 7.88 K/uL
WBC, total AVG ([3]; dry period, average 0 to 6 weeks, reference 4-12): 11.91 K/uL
MCH, total AVG ([3]; dry period, average 0 to 6 weeks, reference 11-17): 16.74 pg
MCV, total AVG ([3]; dry period, average 0 to 6 weeks, reference 40-60): 47.54 fL
Platelet, total AVG ([3]; dry period, average 0 to 6 weeks, reference 100-800): 331.35 K/ul
effect on hematological properties of dairy cattle compared with control ([3]; during the dry period): did not significantly affect
SMILES: CC(=O)N[C@@H](Cc1c[nH]c2ccccc12)C(=O)O [NALT, N-acetyl-L-tryptophan]
overall feed intake compared with control ([1]; 6 weeks of dry period): numerical increase; also recorded: numerically increased
feed intake ([1]; week 0 of dry period): 6.63 kg
feed intake ([1]; week 1 of dry period): 6.85 kg
feed intake compared with control ([1]; week 2, p<0.05): statistically significant increase
feed intake ([1]; week 2 of dry period): 7.73 kg
feed intake ([1]; week 3 of dry period): 7.62 kg
increase in feed intake compared with control ([1]; week 4, control 6.46 kg): 1.43 kg
feed intake ([1]; week 4 of dry period): 7.69 kg
feed intake ([1]; week 5 of dry period): 7.63 kg
Lactose ([2]; 0 wk): 3.48%
Milk fat ([2]; 0 wk): 6.25%
Milk protein ([2]; 0 wk): 12.81%
Milk urea nitrogen ([2]; 0 wk): 24.43 mg/dL
Solid-not Fat ([2]; 0 wk): 17.17%
Somatic cells ([2]; 0 wk): 4867.95 ×10^3
Lactose, total AVG [2, 6]: 4.38%
Milk fat, total AVG [2, 6]: 6.31%
Milk protein, total AVG [2, 6]: 4.88%
Milk urea nitrogen, total AVG [2, 6]: 16.49 mg/dL
Solid-not Fat, total AVG [2, 6]: 9.95%
Somatic cells, total AVG [2, 6]: 1086.15 ×10^3
milk fat yield of colostrum compared with control ([2]; immediately after calving): lower
milk protein yield of colostrum compared with control ([2]; immediately after calving): higher
BHB ([2]; milk beta-hydroxybutyrate, 0 wk): 0.00
BHB, total AVG ([2]; milk beta-hydroxybutyrate, average over 8 weeks after calving): 0.04
Cas.B ([2]; milk casein-beta, 0 wk): 9.76
Cas.B, total AVG ([2]; milk casein-beta, average over 8 weeks after calving): 3.71
Mono FA ([2]; milk mono-unsaturated fatty acids, 0 wk): 1.35
Mono FA, total AVG ([2]; milk mono-unsaturated fatty acids, average over 8 weeks after calving): 1.70
Poly FA ([2]; milk poly-unsaturated fatty acids, 0 wk): 0.34
Poly FA, total AVG ([2]; milk poly-unsaturated fatty acids, average over 8 weeks after calving): 0.36
Aceton ([2]; milk, 0 wk): 0.00
Saturated FA ([2]; milk, 0 wk): 4.95
Total FA ([2]; milk, 0 wk): 1.38
Aceton, total AVG [2, 7]: 0.07
Saturated FA, total AVG [2, 7]: 4.20
Total FA, total AVG [2, 7]: 2.16
milk fat yield as the experiment progressed ([2]; weekly basis after calving, control showed a tendency to decrease): tendency to be maintained constantly
glucose (Glu) index of newborn calves compared with control ([4]; calves of the NALT-treated group, 8 weeks after birth): statistically significant difference; also recorded: decreasing a blood glucose level
Albumin ([4]; calves, 0 wk): 2.50 g/dL
BUN ([4]; calves, 0 wk): 10.00 mg/dL
CHO ([4]; calves, 0 wk): 33.00 mg/dL
GLU ([4]; calves, 0 wk): 54.75 mg/dL
GOT ([4]; calves, 0 wk): 47.25 U/L
TG ([4]; calves, 0 wk): 14.50 mg/dL
Albumin, total AVG ([4]; calves, average 0 to 8 weeks): 3.36 g/dL
BUN, total AVG ([4]; calves, average 0 to 8 weeks): 11.30 mg/dL
CHO, total AVG ([4]; calves, average 0 to 8 weeks): 109.30 mg/dL
GOT, total AVG ([4]; calves, average 0 to 8 weeks): 62.55 U/L
TG, total AVG ([4]; calves, average 0 to 8 weeks): 34.40 mg/dL
GLU, total AVG ([4]; calves, average 0 to 8 weeks, P 0.015): 78.95 mg/dL
initial index of mean corpuscular hemoglobin (MCH) of newborn calves compared with control [5, 8]: statistically significant difference
initial index of mean corpuscular volume (MCV) of newborn calves compared with control [5, 8]: statistically significant difference
monocyte index of newborn calves compared with control [5, 8]: significant differences
Monocyte ([5]; calves, 0 wk, reference 0-0.84): 0.32 K/uL
Granulocyte ([5]; calves, 0 wk, reference 0.6-6.7): 9.68 K/uL
Lymphocyte ([5]; calves, 0 wk, reference 2.5-7.5): 3.72 K/uL
WBC ([5]; calves, 0 wk, reference 4-12): 13.72 K/uL
MCH ([5]; calves, 0 wk, reference 11-17, P 0.056): 12.95 pg
MCV ([5]; calves, 0 wk, reference 40-60, P 0.027): 39.00 fL
Platelet ([5]; calves, 0 wk, reference 100-800): 512.75 K/ul
Monocyte, total AVG ([5]; calves, average 0 to 8 weeks, reference 0-0.84, P 0.031): 0.53 K/uL
Granulocyte, total AVG ([5]; calves, average 0 to 8 weeks, reference 0.6-6.7): 4.69 K/uL
Lymphocyte, total AVG ([5]; calves, average 0 to 8 weeks, reference 2.5-7.5): 6.93 K/uL
WBC, total AVG ([5]; calves, average 0 to 8 weeks, reference 4-12): 12.14 K/uL
MCH, total AVG ([5]; calves, average 0 to 8 weeks, reference 11-17): 11.20 pg
MCV, total AVG ([5]; calves, average 0 to 8 weeks, reference 40-60): 31.80 fL
Platelet, total AVG ([5]; calves, average 0 to 8 weeks, reference 100-800): 584.35 K/ul
immune response of the calves born from dairy cattle ([5]; conclusion drawn from hematology of calves): positive effects
